Measurements taken from patent US20240262844A1, “PYRIDINIUM SALTS AND METHODS OF USE” (UNIVERSITY OF WYOMING, priority 2023, published 2024).
Counter-ions that a name gives are not always drawn.

Biological target: T1, bovine carbonic anhydrase II (29 kDa) (Bos taurus, UniProt P00921)
T1 construct: Carbonic Anhydrase Isozyme II from bovine erythrocytes; purchased Sigma Aldrich; host or cells: bovine erythrocytes
Test: Photochemical labeling of bovine carbonic anhydrase II (LC/MS, MS-MS)
Format: biochemical
Procedure: General Procedure B: Photochemical Irradiation of Peptides and Proteins: To a 2 mL Pyrex LC/MS vial (Thermo model #03-391-39) were sequentially added solutions containing the desired biomolecule, glutathione (GSH), pyridinium salt, and ammonium acetate (NH4OAc). The resulting solution was diluted to a final volume of 500 μL and then sparged using nitrogen for a minimum of 30 minutes prior to irradiation. The actively sparging solution was then placed in an EvoluChem™ PhotoRedOx Box photoreactor that was equipped with a Kessil, PR160 427 nm LED Lamp and was then irradiated (100% lamp intensity) for the designated time at room temperature while maintaining active sparging. The resultant reaction mixture was then analyzed directly by LC/MS. […]
Labeling of Bovine Carbonic Anhydrase II with Pyridinium Salt 2a (Bovine Carbonic Anhydrase II-2a Conjugate). […] The reaction mixture was directly analyzed by LC/MS using method A and was estimated to have proceeded with 34% conversion and a 4.5:1 mono:di labeled ratio. […]
General Trypsin Digest Protocol B: For non-cystine bridged labeled proteins, a standard trypsin digest was modified as follows. […] The digested mixture was analyzed directly by LC/MS and MS/MS using method C. […] The reduced product was analyzed by LC/MS-MS by selecting m/z=1108.4 for collision-induced dissociation (Collision energy=35 V). […]

T1 sequence (P00921 whole entry): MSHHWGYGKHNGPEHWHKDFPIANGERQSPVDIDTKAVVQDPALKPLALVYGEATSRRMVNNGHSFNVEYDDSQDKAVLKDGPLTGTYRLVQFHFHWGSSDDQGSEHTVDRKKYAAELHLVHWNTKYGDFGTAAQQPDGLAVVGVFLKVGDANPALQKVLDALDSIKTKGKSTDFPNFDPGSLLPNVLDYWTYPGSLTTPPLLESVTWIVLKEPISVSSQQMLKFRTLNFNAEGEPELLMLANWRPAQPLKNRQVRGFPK

For COC(=O)N(C)[n+]1c(C)cc(-c2ccc3cc(OC)ccc3c2)cc1C [Pyridinium salt 2a, 1-((methoxycarbonyl)(methyl)amino)-4-(6-methoxynapthalen-2-yl)-2,6-dimethylpyridin-1-ium tetrafluoroborate], the glutathionylation (10 μM carbonic anhydrase II, 200 μM pyridinium salt, 300 μM glutathione, 60 minutes) was “No glutathionylation was observed” and the “identifiable site of modification” value (digestion/MS-MS) was “Trp-243”.
